According to patent US12365692B2, “6-hydroxy-8-oxatricyclo[3.2.1.02,4]octane-2-carboxamide derivatives for inducing chondrogenesis for treating joint damage” (NOVARTIS AG, priority 2018, dated 2025):
pIC50: −log10 of the molar value. Where two headings read alike, the source gives them in different places.

System: ALP in NHAC (normal human articular chondrocytes)
Assay: Alkaline Phosphatase (ALP) activity assay: ALP staining and quantitation in NHACs (prevention of chondrocyte hypertrophy)
Type: cell-based
Conditions: human IL-1 beta 10 ng/mL, 12 days; for pIC50: Fast Blue RR staining, high content imaging
Procedure, shortened: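 NHACs were plated with test compound in DMEM containing 10% FBS, and human IL-1 beta was added 5 h later at 10 ng/mL final. Cultures were kept 12 days at 37° C, 5% CO2. Cells were then fixed, ALP-stained with Fast Blue RR/Naphthol AS-MX, and hypertrophic cells were imaged and quantified by high-content imaging.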

[1] = Chondrocyte, 288 h, read-out: ALP in NHAC (% Efficacy)

| Molecule | pIC50 (Chondrocyte, 288 h) | Emax [1] [%] | Emax | pIC50 |
| --- | --- | --- | --- | --- |
| COc1cc([C@@]23C[C@]2(C(=O)Nc2ccc(C(F)(F)F)c(F)c2)[C@H]2C[C@H](O)[C@@H]3O2)ccn1 (racemic) [Example 75, rac-(1R,2R,4S,5R,6S)—N-(3-fluoro-4-(trifluoromethyl)phenyl)-6-hydroxy-4-(2-methoxypyridin-4-yl)-8-oxatricyclo[3.2.1.02,4]octane-2-carboxamide] | < 4.52 | 26 | – | – |
| COc1cc([C@@]23C[C@]2(C(=O)Nc2ccc(C(F)(F)F)cc2)[C@H]2C[C@H](O)[C@@H]3O2)ccn1 (racemic) [Example 76, rac-(1R,2R,4S,5R,6S)-6-hydroxy-4-(2-methoxypyridin-4-yl)-N-(4-(trifluoromethyl)phenyl)-8-oxatricyclo[3.2.1.02,4]octane-2-carboxamide] | 4.82 | 57 | – | – |
| N#Cc1cc(NC(=O)[C@]23C[C@@]2(c2ccnc(F)c2)[C@H]2O[C@@H]3C[C@@H]2O)cc(C(F)(F)F)c1 (racemic) [Example 77, rac-(1R,2R,4S,5R,6S)—N-(3-cyano-5-(trifluoromethyl)phenyl)-4-(2-fluoropyridin-4-yl)-6-hydroxy-8-oxatricyclo[3.2.1.02,4]octane-2-carboxamide] | < 4.52 | 29 | – | – |
| N#Cc1ccc(C(F)(F)F)cc1NC(=O)[C@]12C[C@@]1(c1ccnc(F)c1)[C@H]1O[C@@H]2C[C@@H]1O (racemic) [Example 78, rac-(1R,2R,4S,5R,6S)—N-(2-cyano-5-(trifluoromethyl)phenyl)-4-(2-fluoropyridin-4-yl)-6-hydroxy-8-oxatricyclo[3.2.1.02,4]octane-2-carboxamide] | < 4.52 | 40 | – | – |
| N#Cc1ccc(NC(=O)[C@]23C[C@@]2(c2cccc(C(F)(F)F)c2)[C@H]2O[C@@H]3C[C@@H]2O)cc1C(F)(F)F (racemic) [Example 79, rac-(1R,2R,4S,5R,6S)—N-(4-cyano-3-(trifluoromethyl)phenyl)-6-hydroxy-4-(3-(trifluoromethyl)phenyl)-8-oxatricyclo[3.2.1.02,4]octane-2-carboxamide] | 5.00 | 78 | – | – |
| N#Cc1ccc(C(F)(F)F)cc1NC(=O)[C@]12C[C@@]1(c1cccc(C(F)(F)F)c1)[C@H]1O[C@@H]2C[C@@H]1O (racemic) [Example 80, rac-(1R,2R,4S,5R,6S)—N-(2-cyano-5-(trifluoromethyl)phenyl)-6-hydroxy-4-(3-(trifluoromethyl)phenyl)-8-oxatricyclo[3.2.1.02,4]octane-2-carboxamide] | 5.66 | 76 | – | – |
| O=C(Nc1cc(C(F)(F)F)ccc1F)[C@]12C[C@@]1(c1cccc(C(F)(F)F)c1)[C@H]1O[C@@H]2C[C@@H]1O (racemic) [Example 81, rac-(1R,2R,4S,5R,6S)—N-(2-fluoro-5-(trifluoromethyl)phenyl)-6-hydroxy-4-(3-(trifluoromethyl)phenyl)-8-oxatricyclo[3.2.1.02,4]octane-2-carboxamide] | < 4.52 | 47 | – | – |
| O=C(Nc1cc(C(F)(F)F)ccn1)[C@]12C[C@@]1(c1cccc(C(F)(F)F)c1)[C@H]1O[C@@H]2C[C@@H]1O (racemic) [Example 82, rac-(1R,2R,4S,5R,6S)-6-hydroxy-4-(3-(trifluoromethyl)phenyl)-N-(4-(trifluoromethyl)pyridin-2-yl)-8-oxatricyclo[3.2.1.02,4]octane-2-carboxamide] | < 4.52 | 36 | – | – |
| (1R,2R,4S,5R,6S)—N-(2-cyano-5-(trifluoromethyl)phenyl)-6-hydroxy-4-(2-methoxypyridin-4-yl)-8-oxatricyclo[3.2.1.02,4]octane-2-carboxamide or (1S,2S,4R,5S,6R)—N-(2-cyano-5-(trifluoromethyl)phenyl)-6-hydroxy-4-(2-methoxypyridin-4-yl)-8-oxatricyclo[3.2.1.02,4]octane-2-carboxamide [Example 39a] | – | – | (90) % | 6.54 |
| (1R,2R,4S,5R,6S)—N-(2-cyano-5-(trifluoromethyl)phenyl)-6-hydroxy-4-(2-methoxypyridin-4-yl)-8-oxatricyclo[3.2.1.02,4]octane-2-carboxamide or (1S,2S,4R,5S,6R)—N-(2-cyano-5-(trifluoromethyl)phenyl)-6-hydroxy-4-(2-methoxypyridin-4-yl)-8-oxatricyclo[3.2.1.02,4]octane-2-carboxamide [Example 39b] | – | – | (97) % | 6.60 |
